Assay results as given in patent US9618524B2, “Method, composition, isolation and identification of a plaque particle and related biomarker” (Plaxgen Inc., priority 2012, dated 2017).

Legend:
Test in all cases: Mass spectroscopy proteomics, semi-quantitative binding affinity of serum proteins (plaqueproteome, Table 2)
Conditions in all cases: higher number = stronger affinity
[1] = molecular target: T1, alpha-synuclein plaque particles (Homo sapiens, UniProt P37840)
T1 construct: 140 amino acids polypeptide
Summary of the method: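 AD-subject plasma or serum (800 μL of 50%) mixed with 30 μg preformed alpha-synuclein aggregates for 1 h at 37 °C; Thioflavin S-positive particles isolated by flow sorting. After reduction, acrylamide alkylation and overnight tryptic digestion, serum proteins identified by MS/MS with Sequest and Scaffold.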

[2] = system: Low density cholesterol (Chl small) plaque particles; design: species or system human
Summary of the method: (§1)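 Proteins bound to flow-sorted cholesterol plaque particles (large/high-density or small/low-density gates) were identified by LC-MS/MS after trypsin digestion. Particles were formed from 50% atherosclerotic serum or plasma with 30 μg cholesterol aggregates, 1 h, 37 °C. Sequest human database search; Scaffold validation.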

[3] = system: High Density cholesterol (Chl Large) plaque particles; design: species or system human
Summary of the method: as §1

[4] = molecular target: T2, Abeta-42 plaque particles (Homo sapiens, UniProt P05067)
T2 construct: Abeta 1-42
Summary of the method: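 AD patient serum or plasma (50% in PBS) was incubated with Abeta-42 aggregates (30 μg) for 1 h at 37 °C, then stained with Thioflavin S for 30 min. Labeled particles were FACS-sorted, trypsin/Lys-C digested overnight and analyzed by MS/MS. Sequest searched human UniProt; Scaffold/Protein Prophet validated the identifications.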

Tau plaque particles = system: Tau plaque particles; design: species or system human
Summary of the method: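 Serum or plasma proteins captured on Thioflavin S-labelled Tau plaque particles (Tau-74, Tau-275 oligomers preformed in PBS at 37° C for 2 h; 1 h co-incubation at 37° C) were isolated by FACS sorting, then tryptically digested and identified by MS/MS (Sequest, human UniProt, strict trypsin).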

## Ig kappa chain V-III region POM
[1]
  Semi-quantitative analysis of proteins binding to different plaque particles: Synuclein: 0
[2]
  Semi-quantitative analysis of proteins binding to different plaque particles: Chl small: 1
[3]
  Semi-quantitative analysis of proteins binding to different plaque particles: Chl Large: 1
[4]
  Semi-quantitative analysis of proteins binding to different plaque particles: Abeta-42: 0
Tau plaque particles
  Semi-quantitative analysis of proteins binding to different plaque particles: Tau: 2

## Ig kappa chain V-III region VG
[1]
  Semi-quantitative analysis of proteins binding to different plaque particles: Synuclein: 1
[2]
  Semi-quantitative analysis of proteins binding to different plaque particles: Chl small: 0
[3]
  Semi-quantitative analysis of proteins binding to different plaque particles: Chl Large: 1
[4]
  Semi-quantitative analysis of proteins binding to different plaque particles: Abeta-42: 0
Tau plaque particles
  Semi-quantitative analysis of proteins binding to different plaque particles: Tau: 0

## Ig lambda chain V-IV region Hil
[1]
  Semi-quantitative analysis of proteins binding to different plaque particles: Synuclein: 0
[2]
  Semi-quantitative analysis of proteins binding to different plaque particles: Chl small: 1
[3]
  Semi-quantitative analysis of proteins binding to different plaque particles: Chl Large: 0
[4]
  Semi-quantitative analysis of proteins binding to different plaque particles: Abeta-42: 0
Tau plaque particles
  Semi-quantitative analysis of proteins binding to different plaque particles: Tau: 1

## Ig lambda-2 chain C regions
[1]
  Semi-quantitative analysis of proteins binding to different plaque particles: Synuclein: 8
[2]
  Semi-quantitative analysis of proteins binding to different plaque particles: Chl small: 7
[3]
  Semi-quantitative analysis of proteins binding to different plaque particles: Chl Large: 5
[4]
  Semi-quantitative analysis of proteins binding to different plaque particles: Abeta-42: 9
Tau plaque particles
  Semi-quantitative analysis of proteins binding to different plaque particles: Tau: 10

## Ig lambda-6 chain C region
[1]
  Semi-quantitative analysis of proteins binding to different plaque particles: Synuclein: 6
[2]
  Semi-quantitative analysis of proteins binding to different plaque particles: Chl small: 3
[3]
  Semi-quantitative analysis of proteins binding to different plaque particles: Chl Large: 3
[4]
  Semi-quantitative analysis of proteins binding to different plaque particles: Abeta-42: 5
Tau plaque particles
  Semi-quantitative analysis of proteins binding to different plaque particles: Tau: 5

## Ig lambda-7 chain C region
[1]
  Semi-quantitative analysis of proteins binding to different plaque particles: Synuclein: 4
[2]
  Semi-quantitative analysis of proteins binding to different plaque particles: Chl small: 2
[3]
  Semi-quantitative analysis of proteins binding to different plaque particles: Chl Large: 3
[4]
  Semi-quantitative analysis of proteins binding to different plaque particles: Abeta-42: 2
Tau plaque particles
  Semi-quantitative analysis of proteins binding to different plaque particles: Tau: 3

## Immunoglobulin J chain
[1]
  Semi-quantitative analysis of proteins binding to different plaque particles: Synuclein: 2
[2]
  Semi-quantitative analysis of proteins binding to different plaque particles: Chl small: 1
[3]
  Semi-quantitative analysis of proteins binding to different plaque particles: Chl Large: 1
[4]
  Semi-quantitative analysis of proteins binding to different plaque particles: Abeta-42: 0
Tau plaque particles
  Semi-quantitative analysis of proteins binding to different plaque particles: Tau: 1

## Immunoglobulin lambda-like polypeptide 5
[1]
  Semi-quantitative analysis of proteins binding to different plaque particles: Synuclein: 8
[2]
  Semi-quantitative analysis of proteins binding to different plaque particles: Chl small: 7
[3]
  Semi-quantitative analysis of proteins binding to different plaque particles: Chl Large: 5
[4]
  Semi-quantitative analysis of proteins binding to different plaque particles: Abeta-42: 9
Tau plaque particles
  Semi-quantitative analysis of proteins binding to different plaque particles: Tau: 11

## Isoform 2 of Annexin A2
[1]
  Semi-quantitative analysis of proteins binding to different plaque particles: Synuclein: 0
[2]
  Semi-quantitative analysis of proteins binding to different plaque particles: Chl small: 0
[3]
  Semi-quantitative analysis of proteins binding to different plaque particles: Chl Large: 0
[4]
  Semi-quantitative analysis of proteins binding to different plaque particles: Abeta-42: 2
Tau plaque particles
  Semi-quantitative analysis of proteins binding to different plaque particles: Tau: 0

## Isoform 2 of Clusterin
[1]
  Semi-quantitative analysis of proteins binding to different plaque particles: Synuclein: 7
[2]
  Semi-quantitative analysis of proteins binding to different plaque particles: Chl small: 4
[3]
  Semi-quantitative analysis of proteins binding to different plaque particles: Chl Large: 6
[4]
  Semi-quantitative analysis of proteins binding to different plaque particles: Abeta-42: 4
Tau plaque particles
  Semi-quantitative analysis of proteins binding to different plaque particles: Tau: 5

## Isoform 2 of Fibrinogen alpha chain
[1]
  Semi-quantitative analysis of proteins binding to different plaque particles: Synuclein: 0
[2]
  Semi-quantitative analysis of proteins binding to different plaque particles: Chl small: 1
[3]
  Semi-quantitative analysis of proteins binding to different plaque particles: Chl Large: 0
[4]
  Semi-quantitative analysis of proteins binding to different plaque particles: Abeta-42: 0
Tau plaque particles
  Semi-quantitative analysis of proteins binding to different plaque particles: Tau: 1

## Isoform 2 of Protein SET
[1]
  Semi-quantitative analysis of proteins binding to different plaque particles: Synuclein: 0
[2]
  Semi-quantitative analysis of proteins binding to different plaque particles: Chl small: 0
[3]
  Semi-quantitative analysis of proteins binding to different plaque particles: Chl Large: 0
[4]
  Semi-quantitative analysis of proteins binding to different plaque particles: Abeta-42: 4
Tau plaque particles
  Semi-quantitative analysis of proteins binding to different plaque particles: Tau: 0

## Isoform 3 of Fibronectin
[1]
  Semi-quantitative analysis of proteins binding to different plaque particles: Synuclein: 16
[2]
  Semi-quantitative analysis of proteins binding to different plaque particles: Chl small: 19
[3]
  Semi-quantitative analysis of proteins binding to different plaque particles: Chl Large: 25
[4]
  Semi-quantitative analysis of proteins binding to different plaque particles: Abeta-42: 9
Tau plaque particles
  Semi-quantitative analysis of proteins binding to different plaque particles: Tau: 23

## Isoform MBP-1 of Alpha-enolase
[1]
  Semi-quantitative analysis of proteins binding to different plaque particles: Synuclein: 0
[2]
  Semi-quantitative analysis of proteins binding to different plaque particles: Chl small: 0
[3]
  Semi-quantitative analysis of proteins binding to different plaque particles: Chl Large: 0
[4]
  Semi-quantitative analysis of proteins binding to different plaque particles: Abeta-42: 7
Tau plaque particles
  Semi-quantitative analysis of proteins binding to different plaque particles: Tau: 0

## Isoform Short of Heterogeneous nuclear ribonucleoprotein
[1]
  Semi-quantitative analysis of proteins binding to different plaque particles: Synuclein: 0
[2]
  Semi-quantitative analysis of proteins binding to different plaque particles: Chl small: 0
[3]
  Semi-quantitative analysis of proteins binding to different plaque particles: Chl Large: 0
[4]
  Semi-quantitative analysis of proteins binding to different plaque particles: Abeta-42: 4
Tau plaque particles
  Semi-quantitative analysis of proteins binding to different plaque particles: Tau: 0

## Lumican
[1]
  Semi-quantitative analysis of proteins binding to different plaque particles: Synuclein: 0
[2]
  Semi-quantitative analysis of proteins binding to different plaque particles: Chl small: 3
[3]
  Semi-quantitative analysis of proteins binding to different plaque particles: Chl Large: 4
[4]
  Semi-quantitative analysis of proteins binding to different plaque particles: Abeta-42: 0
Tau plaque particles
  Semi-quantitative analysis of proteins binding to different plaque particles: Tau: 0

## Lysozyme C
[1]
  Semi-quantitative analysis of proteins binding to different plaque particles: Synuclein: 0
[2]
  Semi-quantitative analysis of proteins binding to different plaque particles: Chl small: 0
[3]
  Semi-quantitative analysis of proteins binding to different plaque particles: Chl Large: 0
[4]
  Semi-quantitative analysis of proteins binding to different plaque particles: Abeta-42: 4
Tau plaque particles
  Semi-quantitative analysis of proteins binding to different plaque particles: Tau: 0

## Myosin-1
[1]
  Semi-quantitative analysis of proteins binding to different plaque particles: Synuclein: 0
[2]
  Semi-quantitative analysis of proteins binding to different plaque particles: Chl small: 0
[3]
  Semi-quantitative analysis of proteins binding to different plaque particles: Chl Large: 0
[4]
  Semi-quantitative analysis of proteins binding to different plaque particles: Abeta-42: 22
Tau plaque particles
  Semi-quantitative analysis of proteins binding to different plaque particles: Tau: 0

## Myosin-6
[1]
  Semi-quantitative analysis of proteins binding to different plaque particles: Synuclein: 0
[2]
  Semi-quantitative analysis of proteins binding to different plaque particles: Chl small: 0
[3]
  Semi-quantitative analysis of proteins binding to different plaque particles: Chl Large: 0
[4]
  Semi-quantitative analysis of proteins binding to different plaque particles: Abeta-42: 17
Tau plaque particles
  Semi-quantitative analysis of proteins binding to different plaque particles: Tau: 0

## Myosin-13
[1]
  Semi-quantitative analysis of proteins binding to different plaque particles: Synuclein: 0
[2]
  Semi-quantitative analysis of proteins binding to different plaque particles: Chl small: 0
[3]
  Semi-quantitative analysis of proteins binding to different plaque particles: Chl Large: 0
[4]
  Semi-quantitative analysis of proteins binding to different plaque particles: Abeta-42: 17
Tau plaque particles
  Semi-quantitative analysis of proteins binding to different plaque particles: Tau: 0

## Nucleoside diphosphate kinase A
[1]
  Semi-quantitative analysis of proteins binding to different plaque particles: Synuclein: 4
[2]
  Semi-quantitative analysis of proteins binding to different plaque particles: Chl small: 0
[3]
  Semi-quantitative analysis of proteins binding to different plaque particles: Chl Large: 0
[4]
  Semi-quantitative analysis of proteins binding to different plaque particles: Abeta-42: 5
Tau plaque particles
  Semi-quantitative analysis of proteins binding to different plaque particles: Tau: 0

## POTE ankyrin domain family member E
[1]
  Semi-quantitative analysis of proteins binding to different plaque particles: Synuclein: 18
[2]
  Semi-quantitative analysis of proteins binding to different plaque particles: Chl small: 0
[3]
  Semi-quantitative analysis of proteins binding to different plaque particles: Chl Large: 0
[4]
  Semi-quantitative analysis of proteins binding to different plaque particles: Abeta-42: 18
Tau plaque particles
  Semi-quantitative analysis of proteins binding to different plaque particles: Tau: 0
